Measured values reported in PMC8070791, “Synthesis of a Coumarin-Based PPARγ Fluorescence Probe for Competitive Binding Assay” (International Journal of Molecular Sciences, 2021).
Like-named read-outs stand apart in the source and are kept apart here.

Experiments:
hPPARγ-LBD = molecular target: T1, hPPARγ-LBD (Homo sapiens, UniProt P37231); assay: Kd determination by fluorescence intensity at 410 nm on adding hPPARγ-LBD; format: binding; settings: probe 1 μM, Ex 367 nm, Tris–HCl buffer
T1 construct: The human PPARγ-LBD (residues 204−477) was expressed; 6×His (TEV-cleavable) (N, cleaved yes); made in house; host or cells: E. coli Rosetta (DE3)
T1 sequence (P37231 204-477 isoform P37231-2): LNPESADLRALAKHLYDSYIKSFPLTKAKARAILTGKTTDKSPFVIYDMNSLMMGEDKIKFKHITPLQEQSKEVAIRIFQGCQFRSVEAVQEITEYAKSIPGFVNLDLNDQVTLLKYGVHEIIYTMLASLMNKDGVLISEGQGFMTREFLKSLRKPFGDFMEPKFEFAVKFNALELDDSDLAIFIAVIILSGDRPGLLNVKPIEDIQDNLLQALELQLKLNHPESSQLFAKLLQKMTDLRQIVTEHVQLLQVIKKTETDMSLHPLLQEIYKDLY
Method: We examined whether 2 and 6 were useful for PPARγ binding assays. […] The fluorescence spectra were measured by adding hPPARγ-LBD (0.05 to 8.0 μM) in Tris–HCl buffer to 2 (1 μM) (Figure 7a). The fluorescence maxima shifted to shorter wavelength and the fluorescence intensity increased upon increasing the concentration of PPARγ-LBD.
The assay buffer was measured as the background for fluorescence spectrum. […] The specific equilibrium binding constant (Kd) was derived using GraphPad Prism6 (Y = Bmax × X^h/(Kd^h + X^h) (X: concentration of PPARγ-LBD [nM], Y: fluorescence intensity at 410 nm, h: Hill slope).
Figure 7 (a) Fluorescence spectra of 2 (1 µM) upon addition to hPPARγ-LBD (0.05–8.0 µM) in Tris–HCl buffer with Ex = 367 nm. (b) Fluorescence intensity of 2 at 410 nm depending on the concentration of hPPARγ-LBD. Data are mean ± SD (n = 3).

[1] = UV-visible absorption and fluorescence spectroscopic analyses in solvents; format: physicochemical; settings: for Q.Y.: reference quinine sulfate in 0.1 M H2SO4; for Q.Y. (Φ), range over solvents: in CH2Cl2, THF, MeOH, or H2O
Method: We evaluated the fluorescence properties of PPARγ ligands 2 and 6 (Figure 4) by measuring the fluorescence spectra and quantum yields (Q.Y.) in CH2Cl2, THF, MeOH, or H2O. […] The dielectric constant of each solvent was THF: 7.4, CH2Cl2: 8.9, MeOH: 32.6, and H2O: 78.5 [41, 42].
Stock solutions of model coumarin compounds PPAR ligands 1, 2, and 6 were prepared in DMSO, and stored in the dark at −20 °C. The stock solutions were diluted (2 μM) with solvents (CH2Cl2, THF, MeOH, and H2O) and then the UV-visible absorption and fluorescence signals were measured by a spectrometer. The fluorescence quantum yields of coumarin analogues were calculated using quinine sulfate (Φ = 0.577 in 0.1 M H2SO4) as a reference standard.

PPARγ [2] = molecular target: T2, PPARγ (Homo sapiens, UniProt P37231); assay: Transactivation dual luciferase assay in COS-7 cells with GAL4-PPARγ chimera; format: cell-based; settings: for EC50: PPARγ transcriptional activity; for Transcriptional activity (in words): compared with rosiglitazone
T2 sequence (P37231 232-505 limits assumed): T1 sequence (P37231 204-477 isoform P37231-2)
Method: Transactivation in COS-7 cells was measured using a dual luciferase assay according to a previously reported procedure. EC50s were calculated by GraphPad Prism 6 (GraphPad Software, San Diego, USA) (<A>LogEC = LogEC50Control <~A>LogEC = LogEC50Control + log(EC50Ratio) Y = Bottom + (Top-Bottom)/(1 + 10^((LogEC-X) × HillSlope))).
The data represent the mean ± SD of three independent experiments.
Biological experiments section
COS-7 cells (RIKEN BRC) was cultured in Dulbecco’s Modified Eagle’s medium (DMEM) (Sigma-
Aldrich) supplemented with 5% heat inactivated fetal bovine serum (FBS) (HyClone) and 1%
penicillin-streptomycin (containing 10000 U/mL penicillin and 10000 µg/mL streptomycin; Nacalai

PPARγ [3] = test system: PPARγ; set-up: method as in PMID 11698662; settings: read-out: The reported EC50 value; cited from earlier work
PPARγ [4] = test system: PPARγ; set-up: method as in PMID 17335769; settings: read-out: The reported IC50 value; cited from earlier work
PPARγ [5] = test system: PPARγ; set-up: method as in PMID 19053776; settings: read-out: The reported EC50 value; cited from earlier work

Compound | Kd (hPPARγ-LBD) [nM] | Absmax ([1]; In CH2Cl2, 2 μM) [nm] | Emmax ([1]; In CH2Cl2, 2 μM) [nm] | Δ ([1]; In CH2Cl2, 2 μM) [nm] | Q.Y. ([1]; In CH2Cl2) | Absmax ([1]; In H2O, 2 μM) [nm] | Emmax ([1]; In H2O, 2 μM) [nm] | Δ ([1]; In H2O, 2 μM) [nm] | Q.Y. ([1]; In H2O) | Absmax ([1]; In MeOH, 2 μM) [nm] | Emmax ([1]; In MeOH, 2 μM) [nm] | Δ ([1]; In MeOH, 2 μM) [nm] | Q.Y. ([1]; In MeOH) | Absmax ([1]; In THF, 2 μM) [nm] | Emmax ([1]; In THF, 2 μM) [nm] | Δ ([1]; In THF, 2 μM) [nm] | Q.Y. ([1]; In THF) | Q.Y. (Φ), range over solvents [1] | EC50 (PPARγ [2]) [nM] | Transcriptional activity (in words) (PPARγ [2]) | further results
CCN(CC)c1ccc2c(N(C)CCOc3ccc(CC4SC(=O)NC4=O)cc3)cc(=O)oc2c1 (stereo not drawn) [Compound 2, 5-(4-(2-((7-(diethylamino)-2-oxo-2H-chromen-4-yl) (methyl)amino)ethoxy)benzyl)thiazolidine-2,4-dione] | 1560 ± 93.6 | 359 | 423 | 64 | 0.541 | 364 | 462 | 98 | 0.143 | 359 | 449 | 90 | 0.532 | 354 | 416 | 62 | 0.191 | 0.143–0.541 | 34 | comparable to rosiglitazone | –
COc1ccc2c(N(C)CCOc3ccc(CC4SC(=O)NC4=O)cc3)cc(=O)oc2c1 (stereo not drawn) [Compound 1] | – | 316 | 469 | 153 | 0.00359 | 312 | 451 | 139 | 0.00369 | 314 | 392 | 78 | 0.0039 | 314 | 467 | 153 | 0.00461 | – | 180 | comparable to rosiglitazone | –
CCN1C(=O)SC(Cc2ccc(OCCN(C)c3cc(=O)oc4cc(N(CC)CC)ccc34)cc2)C1=O (stereo not drawn) [Compound 6, 5-(4-(2-((7-(diethylamino)-2-oxo-2H-chromen-4-yl)(methyl)amino)ethoxy)benzyl)-3-ethylthiazolidine-2,4-dione] | 4080 ± 712 | 359 | 423 | 64 | 0.764 | 369 | 461 | 92 | 0.0865 | 358 | 449 | 91 | 0.432 | 353 | 416 | 63 | 0.172 | 0.0865–0.764 | 350 | partial agonistic activity | –
CN(CCOc1ccc(CC2SC(=O)NC2=O)cc1)c1ccccn1 (stereo not drawn) [Rosiglitazone] | – | – | – | – | – | – | – | – | – | – | – | – | – | – | – | – | – | – | – | – | EC50 (PPARγ [3]): 18 ± 4 nM; IC50 (PPARγ [4]): […]; EC50 (PPARγ [5]): […]
